The values below come from PubChem BioAssay AID1918995 (Molecular Pharmacology Branch, DTP, NCI, 2023).

In this assay the test system is 324938-238-R-J1-PDC complex spheroid growth, % test/control. The assay is described as follows: Anticancer human tumor 324938-238-R-J1-PDC patient-derived bladder carcinoma cell line growth inhibition [AhR]. To be noted: for viability, T/C: stronger effect = lower value. The essentials:
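Spheroids combined tumor cells with HUVEC endothelial cells and human MSCs as stroma. AhR antagonists were paired with standard or investigational drugs, each dosed in half-log steps down from near clinical Cmax, or from 10 microM where Cmax was unknown.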

Where [1] appears, read: curve of first compound, second compound 0.1 µM.
Where [2] appears, read: curve of first compound, second compound 0.316 µM.
Setting [3] is: curve of first compound, second compound 1 µM.
Setting [4] is: curve of first compound, second compound 3.16 µM.
Setting [5] is: curve of first compound, second compound 10 µM.
The mark [6] stands for this setting: second compound 0.1 µM, first compound 0.0316 µM.
The mark [7] stands for this setting: second compound 0.1 µM, first compound 0.1 µM.
Setting [8] is: second compound 0.1 µM, first compound 0.316 µM.
Where [9] appears, read: second compound 0.1 µM, first compound 1 µM.
[10] abbreviates: second compound 0.1 µM, first compound 3.16 µM.
Where [11] appears, read: second compound 0.1 µM, first compound 10 µM.
Setting [12] is: second compound 0.316 µM, first compound 0.0316 µM.
[13] abbreviates: second compound 0.316 µM, first compound 0.1 µM.
Where [14] appears, read: second compound 0.316 µM, first compound 0.316 µM.
[15] abbreviates: second compound 0.316 µM, first compound 1 µM.
The mark [16] stands for this setting: second compound 0.316 µM, first compound 3.16 µM.
Setting [17] is: second compound 0.316 µM, first compound 10 µM.
Setting [18] is: second compound 1 µM, first compound 0.0316 µM.
[19] abbreviates: second compound 1 µM, first compound 0.1 µM.
[20] abbreviates: second compound 1 µM, first compound 0.316 µM.
Setting [21] is: second compound 1 µM, first compound 1 µM.
Where [22] appears, read: second compound 1 µM, first compound 3.16 µM.
Where [23] appears, read: second compound 1 µM, first compound 10 µM.
[24] abbreviates: second compound 3.16 µM, first compound 0.0316 µM.
Where [25] appears, read: second compound 3.16 µM, first compound 0.1 µM.
[26] abbreviates: second compound 3.16 µM, first compound 0.316 µM.
Setting [27] is: second compound 3.16 µM, first compound 1 µM.
Setting [28] is: second compound 3.16 µM, first compound 3.16 µM.
Setting [29] is: second compound 3.16 µM, first compound 10 µM.
[30] abbreviates: second compound 10 µM, first compound 0.0316 µM.
[31] abbreviates: second compound 10 µM, first compound 0.1 µM.
Where [32] appears, read: second compound 10 µM, first compound 0.316 µM.
[33] abbreviates: second compound 10 µM, first compound 1 µM.
Where [34] appears, read: second compound 10 µM, first compound 3.16 µM.
The mark [35] stands for this setting: second compound 10 µM, first compound 10 µM.

Several values for one entry are separate records, joined by “and”; a condition that tells them apart may be missing. Equal values may be shown once.
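Also: spheroids exposed to agents for seven days before viability read.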

For orientation: IC50 means the concentration needed to halve the response being measured. By viability, T/C is commonly meant the ratio of treated to control. `COc1cccc2c1C(=O)c1c(O)c3c(c(O)c1C2=O)CC(O)(C(=O)CO)CC3OC1CC(N)C(O)C(C)O1` (stereo not given) + Cc1ccccc1N=Nc1ccc(NC(=O)c2ccnn2C)c(C)c1: the IC50 reads like this: under setting [1], under 0.0316 µM; under setting [2], under 0.0316 µM; under setting [3], under 0.0316 µM; under setting [4], under 0.0316 µM; under setting [5], under 0.0316 µM. For the same molecule, the viability, T/C is, setting by setting: under setting [6], 34.7%; under setting [7], 29.3%; under setting [8], 18.9%; under setting [9], 4.96%; under setting [10], 0.1%; under setting [11], 0.15%. In addition, the viability, T/C by setting is: under setting [12], 37.7%; under setting [13], 35.9%; under setting [14], 13.8%; under setting [15], 4.13%; under setting [16], 0.05%; under setting [17], 0.13%. Also, the viability, T/C was 35.1% under setting [18]; 31.4% under setting [19]; 16.4% under setting [20]; 3.09% under setting [21]; 0.05% under setting [22]; 0.12% under setting [23]. Moreover, the viability, T/C reads like this: under setting [24], 34.7%; under setting [25], 31.7%; under setting [26], 15.9%; under setting [27], 3.16%; under setting [28], 0.08%; under setting [29], 0.13%. The viability, T/C was 38% under setting [30]; 37.6% under setting [31]; 22% under setting [32]; 5.73% under setting [33]; 0.14% under setting [34]; 0.2% under setting [35].

Turning to `Cc1cncc(-c2nc(NCCc3c[nH]c4ccccc34)c3ncn(C(C)C)c3n2)c1`, the IC50 (compound alone, run of 07/18/2022) is 5.31 µM [middle of 23 runs].

For `Nc1ncn(C2CC(O)C(CO)O2)c(=O)n1` (stereo not given), the viability, T/C (compound 0.00316 µM) is 69.8% and 99.6% and 102%; the viability, T/C (compound 0.01 µM) is 96.2% and 113% and 94.2%; the viability, T/C (compound 0.0316 µM) is 82.3% and 98.6% and 85.2%; the viability, T/C (compound 0.1 µM) is 83.7% and 98.3% and 96.2%; the viability, T/C (compound 0.316 µM) was 128% and 80.2% and 81.7%; the viability, T/C (compound 1 µM) is 92.8% and 72% and 68.3%. Moreover, the IC50 (curve of compound) is over 1 µM.

As to `CC1(C)CCC(CN2CCN(c3ccc(C(=O)NS(=O)(=O)c4ccc(NCC5CCOCC5)c([N+](=O)[O-])c4)c(Oc4cnc5[nH]ccc5c4)c3)CC2)=C(c2ccc(Cl)cc2)C1` + Cc1ccccc1N=Nc1ccc(NC(=O)c2ccnn2C)c(C)c1, the IC50 reads like this: under setting [1], 9.57 µM; under setting [2], over 10 µM; under setting [3], 8.76 µM; under setting [4], 6 µM; under setting [5], 5.68 µM. The viability, T/C is, setting by setting: under setting [6], 87.7%; under setting [7], 92.8%; under setting [8], 93.6%; under setting [9], 87.8%; under setting [10], 80.7%; under setting [11], 48.8%. Moreover, the viability, T/C by setting is: under setting [12], 89.4%; under setting [13], 90.5%; under setting [14], 88%; under setting [15], 83.3%; under setting [16], 72%; under setting [17], 52%. The viability, T/C reads like this: under setting [18], 83.5%; under setting [19], 85.8%; under setting [20], 80.7%; under setting [21], 71.8%; under setting [22], 71.1%; under setting [23], 46.7%. Besides, the viability, T/C is 72.4% under setting [24]; 71.8% under setting [25]; 68.9% under setting [26]; 69% under setting [27]; 61.3% under setting [28]; 41% under setting [29]. The viability, T/C is, setting by setting: under setting [30], 73.8%; under setting [31], 70.2%; under setting [32], 69.6%; under setting [33], 67.9%; under setting [34], 58%; under setting [35], 41.9%.

`Nc1ncn(C2CC(O)C(CO)S2)c(=O)n1` (stereo not given) + Cc1ccccc1N=Nc1ccc(NC(=O)c2ccnn2C)c(C)c1: the IC50 by setting is: under setting [1], over 0.3 µM; under setting [2], over 0.3 µM; under setting [3], over 0.3 µM; under setting [4], 0.29 µM; under setting [5], 0.296 µM. Also, the viability, T/C is 83.2% (second compound 0.1 µM, first compound 0.000949 µM); 95.4% (second compound 0.1 µM, first compound 0.003 µM); 91.7% (second compound 0.1 µM, first compound 0.00949 µM); 78.5% (second compound 0.1 µM, first compound 0.03 µM); 72.6% (second compound 0.1 µM, first compound 0.0949 µM); 53.4% (second compound 0.1 µM, first compound 0.3 µM). For the same molecule, the viability, T/C is 81.7% (second compound 0.316 µM, first compound 0.000949 µM); 90.2% (second compound 0.316 µM, first compound 0.003 µM); 98.3% (second compound 0.316 µM, first compound 0.00949 µM); 82.6% (second compound 0.316 µM, first compound 0.03 µM); 71.8% (second compound 0.316 µM, first compound 0.0949 µM); 54.3% (second compound 0.316 µM, first compound 0.3 µM). Also, the viability, T/C by setting is: (second compound 1 µM, first compound 0.000949 µM) 97.1%; (second compound 1 µM, first compound 0.003 µM) 87.4%; (second compound 1 µM, first compound 0.00949 µM) 78.7%; (second compound 1 µM, first compound 0.03 µM) 78.7%; (second compound 1 µM, first compound 0.0949 µM) 65%; (second compound 1 µM, first compound 0.3 µM) 55.4%. For the same molecule, the viability, T/C by setting is: (second compound 3.16 µM, first compound 0.000949 µM) 83.7%; (second compound 3.16 µM, first compound 0.003 µM) 85.4%; (second compound 3.16 µM, first compound 0.00949 µM) 66%; (second compound 3.16 µM, first compound 0.03 µM) 70.4%; (second compound 3.16 µM, first compound 0.0949 µM) 60.9%; (second compound 3.16 µM, first compound 0.3 µM) 48.5%. The viability, T/C (second compound 10 µM, first compound 0.000949 µM) was 81.6%; the viability, T/C (second compound 10 µM, first compound 0.003 µM) is 71.4%; the viability, T/C (second compound 10 µM, first compound 0.00949 µM) was 70.5%; the viability, T/C (second compound 10 µM, first compound 0.03 µM) was 68.8%; the viability, T/C (second compound 10 µM, first compound 0.0949 µM) is 65.8%; the viability, T/C (second compound 10 µM, first compound 0.3 µM) was 48.7%.

On to `COc1ccc([C@@H](O)c2cc(-c3ncnc4cc(N5CCOCC5)ccc34)c(F)cc2Cl)nn1`, for which the viability, T/C runs as follows: (compound 0.0316 µM) 109% (2×) and 99.4%; (compound 0.1 µM) 115% and 112% and 109%; (compound 0.316 µM) 59.1% and 92.5% and 94%; (compound 1 µM) 82.9% and 89.8% and 84%; (compound 3.16 µM) 59.8% and 80.3% and 73.2%; (compound 10 µM) 33.9% and 66% and 60.1%. Besides, the IC50 (curve of compound) is 4.38 µM and > 10 µM.
